# Measurements published in ChEMBL document CHEMBL4138254 (ACS Med Chem Lett, 2017).
# Biological target: T1, Autotaxin (Rattus norvegicus, UniProt Q64610)
# Test: Inhibition of recombinant rat ATX using LPC 18:1 as substrate after 2 hrs by rapidfire/MS-based analysis
# Conditions: not given
row,Compound,IC50
1,Cc1cc(COC(=O)N2C[C@@H]3[C@@H](CNC(=O)c4ccc5[nH]c(=O)oc5c4)[C@@H]3C2)no1,1670 nM
2,Cc1ccc(COC(=O)N2C[C@@H]3[C@@H](CNC(=O)c4ccc5[nH]c(=O)oc5c4)[C@@H]3C2)nc1,1530 nM

# Biological target: T1, Autotaxin
# Test: Inhibition of ATX in rat whole blood using LPA 17:0 as substrate after 1 hr by LC-MS/MS analysis
# Conditions: not given
row,Compound,IC50
1,Cc1ccc(COC(=O)N2C[C@@H]3[C@@H](CNC(=O)c4ccc5[nH]c(=O)oc5c4)[C@@H]3C2)nc1,1610 nM

# Biological target: Voltage-gated inwardly rectifying potassium channel KCNH2 (Homo sapiens, UniProt Q12809)
# Sequence (Q12809 whole entry): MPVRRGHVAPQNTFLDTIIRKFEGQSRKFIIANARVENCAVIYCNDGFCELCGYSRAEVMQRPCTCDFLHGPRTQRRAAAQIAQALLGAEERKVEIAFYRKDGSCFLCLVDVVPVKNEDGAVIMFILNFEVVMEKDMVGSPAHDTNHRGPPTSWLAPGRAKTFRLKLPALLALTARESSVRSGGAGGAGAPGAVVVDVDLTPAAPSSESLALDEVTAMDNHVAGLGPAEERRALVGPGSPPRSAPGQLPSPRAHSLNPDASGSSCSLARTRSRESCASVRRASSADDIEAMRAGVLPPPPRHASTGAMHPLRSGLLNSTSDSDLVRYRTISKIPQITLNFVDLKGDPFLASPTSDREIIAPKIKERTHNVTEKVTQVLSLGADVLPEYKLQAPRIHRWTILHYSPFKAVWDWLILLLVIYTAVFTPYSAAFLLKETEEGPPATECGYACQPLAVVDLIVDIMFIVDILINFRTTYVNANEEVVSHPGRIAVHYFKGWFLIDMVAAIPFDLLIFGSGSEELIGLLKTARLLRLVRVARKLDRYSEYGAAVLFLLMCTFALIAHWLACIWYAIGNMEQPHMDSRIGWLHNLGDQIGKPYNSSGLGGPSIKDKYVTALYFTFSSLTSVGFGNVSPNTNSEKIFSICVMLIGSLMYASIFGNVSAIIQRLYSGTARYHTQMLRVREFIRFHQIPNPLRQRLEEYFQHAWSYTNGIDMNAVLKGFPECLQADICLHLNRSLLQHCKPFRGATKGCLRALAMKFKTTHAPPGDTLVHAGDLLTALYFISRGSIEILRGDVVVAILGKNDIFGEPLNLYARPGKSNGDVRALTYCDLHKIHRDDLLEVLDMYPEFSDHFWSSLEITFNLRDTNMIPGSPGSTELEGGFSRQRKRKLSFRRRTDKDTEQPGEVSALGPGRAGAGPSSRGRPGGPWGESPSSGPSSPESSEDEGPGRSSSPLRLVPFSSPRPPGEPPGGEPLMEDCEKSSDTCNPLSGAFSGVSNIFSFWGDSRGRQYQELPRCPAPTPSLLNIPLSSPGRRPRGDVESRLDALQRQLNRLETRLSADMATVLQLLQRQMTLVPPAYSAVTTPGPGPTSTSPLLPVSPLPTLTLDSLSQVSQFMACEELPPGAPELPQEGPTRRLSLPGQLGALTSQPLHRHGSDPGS
# Test: not given
# Conditions: not given
row,Compound,IC50
1,Cc1cc(COC(=O)N2C[C@@H]3[C@@H](CNC(=O)c4ccc5[nH]c(=O)oc5c4)[C@@H]3C2)no1,> 10000 nM
2,Cc1ccc(COC(=O)N2C[C@@H]3[C@@H](CNC(=O)c4ccc5[nH]c(=O)oc5c4)[C@@H]3C2)nc1,> 10000 nM

# System: not listed separately
# Test: physchem
# Conditions: pH 2.2 buffer solution
# Description: Aqueous solubility of the compound in pH 2.2 buffer solution after 24 hrs by LC-UV analysis
row,Compound,solubility at 24 h
1,Cc1cc(COC(=O)N2C[C@@H]3[C@@H](CNC(=O)c4ccc5[nH]c(=O)oc5c4)[C@@H]3C2)no1,> 86 µg/mL
2,Cc1ccc(COC(=O)N2C[C@@H]3[C@@H](CNC(=O)c4ccc5[nH]c(=O)oc5c4)[C@@H]3C2)nc1,> 92 µg/mL

# System: not listed separately
# Test: physchem
# Conditions: pH 4.5 buffer solution
# Description: Aqueous solubility of the compound in pH 4.5 buffer solution after 24 hrs by LC-UV analysis
row,Compound,solubility at 24 h
1,Cc1cc(COC(=O)N2C[C@@H]3[C@@H](CNC(=O)c4ccc5[nH]c(=O)oc5c4)[C@@H]3C2)no1,> 93 µg/mL
2,Cc1ccc(COC(=O)N2C[C@@H]3[C@@H](CNC(=O)c4ccc5[nH]c(=O)oc5c4)[C@@H]3C2)nc1,66 µg/mL

# System: not listed separately
# Test: physchem
# Conditions: pH 6.8 buffer solution
# Description: Aqueous solubility of the compound in pH 6.8 buffer solution after 24 hrs by LC-UV analysis
row,Compound,solubility at 24 h
1,Cc1cc(COC(=O)N2C[C@@H]3[C@@H](CNC(=O)c4ccc5[nH]c(=O)oc5c4)[C@@H]3C2)no1,63 µg/mL
2,Cc1ccc(COC(=O)N2C[C@@H]3[C@@H](CNC(=O)c4ccc5[nH]c(=O)oc5c4)[C@@H]3C2)nc1,56 µg/mL

# System: not listed separately
# Test: in vitro
# Conditions: human, liver microsomes
# Description: Clearance in human liver microsomes at 1 uM in presence of NADPH by LC-MS/MS analysis relative to hepatic blood flow
row,Compound,hepatic extraction ratio at 1 µM
1,Cc1cc(COC(=O)N2C[C@@H]3[C@@H](CNC(=O)c4ccc5[nH]c(=O)oc5c4)[C@@H]3C2)no1,< 0.23
2,Cc1ccc(COC(=O)N2C[C@@H]3[C@@H](CNC(=O)c4ccc5[nH]c(=O)oc5c4)[C@@H]3C2)nc1,0.25

# System: not listed separately
# Test: in vitro
# Conditions: rat, liver microsomes
# Description: Clearance in rat liver microsomes at 1 uM in presence of NADPH by LC-MS/MS analysis relative to hepatic blood flow
row,Compound,hepatic extraction ratio at 1 µM
1,Cc1cc(COC(=O)N2C[C@@H]3[C@@H](CNC(=O)c4ccc5[nH]c(=O)oc5c4)[C@@H]3C2)no1,< 0.22
2,Cc1ccc(COC(=O)N2C[C@@H]3[C@@H](CNC(=O)c4ccc5[nH]c(=O)oc5c4)[C@@H]3C2)nc1,< 0.22

# System: not listed separately
# Test: in vitro
# Conditions: human, Caco-2
# Description: Apparent permeability across apical to basolateral side in human Caco2 cells at 10 uM measured up to 90 mins
row,Compound,"Papp A→B at 1.5 h, 10 µM"
1,Cc1cc(COC(=O)N2C[C@@H]3[C@@H](CNC(=O)c4ccc5[nH]c(=O)oc5c4)[C@@H]3C2)no1,2 ×10⁻⁶ cm/s
2,Cc1ccc(COC(=O)N2C[C@@H]3[C@@H](CNC(=O)c4ccc5[nH]c(=O)oc5c4)[C@@H]3C2)nc1,1 ×10⁻⁶ cm/s
